According to the supplement of paper PMC10307832:

Legend:
Assay in all cases: relative viability (nuclei count vs DMSO), 5 days (fraction); higher = more cells survive
VE-821 + Pemetrexed = compound: CS(=O)(=O)c1ccc(-c2cnc(N)c(C(=O)Nc3ccccc3)n2)cc1 [VE-821] + Nc1nc2[nH]cc(CCc3ccc(C(=O)N[C@@H](CCC(=O)O)C(=O)O)cc3)c2c(=O)[nH]1 [Pemetrexed] (partner 0.2 µM)
Summary of the method: (§1)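 Relative viability was taken as the ratio of nuclei in treated wells to nuclei in vehicle wells. Lung cancer cell lines in 1536-well plates received compounds by pin tool one day after seeding, either one drug alone or a fixed anchor-drug dose plus five library-drug doses (not always all listed) in √10 steps. Nuclei were counted on 4× images after 5 days of treatment, and values are medians of duplicate plates.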

VE-821 + Vorinostat = compound: CS(=O)(=O)c1ccc(-c2cnc(N)c(C(=O)Nc3ccccc3)n2)cc1 [VE-821] + O=C(CCCCCCC(=O)Nc1ccccc1)NO [Vorinostat] (partner 1 µM)
Summary of the method: as §1

Ruxolitinib + Tozasertib = compound: N#CC[C@H](C1CCCC1)n1cc(-c2ncnc3[nH]ccc23)cn1 [Ruxolitinib] + Cc1cc(Nc2cc(N3CCN(C)CC3)nc(Sc3ccc(NC(=O)C4CC4)cc3)n2)n[nH]1 [Tozasertib] (partner 0.1 µM)
Summary of the method: as §1

Ruxolitinib + Olaparib = compound: N#CC[C@H](C1CCCC1)n1cc(-c2ncnc3[nH]ccc23)cn1 [Ruxolitinib] + O=C(c1cc(Cc2n[nH]c(=O)c3ccccc23)ccc1F)N1CCN(C(=O)C2CC2)CC1 [Olaparib] (partner 8 µM)
Summary of the method: as §1

| Cell Line | relative viability (VE-821 + Pemetrexed; first compound 0.08 µM) | relative viability (VE-821 + Pemetrexed; first compound 0.253 µM) | relative viability (VE-821 + Pemetrexed; first compound 0.8 µM) | relative viability (VE-821 + Pemetrexed; first compound 2.53 µM) | relative viability (VE-821 + Pemetrexed; first compound 8 µM) | relative viability (VE-821 + Vorinostat; first compound 0.08 µM) | relative viability (VE-821 + Vorinostat; first compound 0.253 µM) | relative viability (VE-821 + Vorinostat; first compound 0.8 µM) | relative viability (VE-821 + Vorinostat; first compound 2.53 µM) | relative viability (VE-821 + Vorinostat; first compound 8 µM) | relative viability (Ruxolitinib + Tozasertib; first compound 0.253 µM) | relative viability (Ruxolitinib + Tozasertib; first compound 0.8 µM) | relative viability (Ruxolitinib + Tozasertib; first compound 2.53 µM) | relative viability (Ruxolitinib + Tozasertib; first compound 8 µM) | relative viability (Ruxolitinib + Olaparib; first compound 0.08 µM) | relative viability (Ruxolitinib + Olaparib; first compound 0.253 µM) | relative viability (Ruxolitinib + Olaparib; first compound 0.8 µM) | relative viability (Ruxolitinib + Olaparib; first compound 2.53 µM) | relative viability (Ruxolitinib + Olaparib; first compound 8 µM) | relative viability (Ruxolitinib + Tozasertib; first compound 0.08 µM) |
| --- | --- | --- | --- | --- | --- | --- | --- | --- | --- | --- | --- | --- | --- | --- | --- | --- | --- | --- | --- | --- |
| NCI-H2405 | 1.09 | 1.04 | 1.05 | 1.12 | 0.884 | 1.09 | 0.977 | 0.992 | 0.984 | 0.859 | 0.787 | 0.833 | 0.758 | 0.604 | 0.931 | 0.838 | 0.882 | 0.633 | 0.573 |  |
| NCI-H522 | 1.28 | 1 | 0.909 | 1.16 | 0.778 | 1.02 | 0.811 | 0.921 | 0.994 | 0.732 | 0.567 | 0.602 | 0.533 | 0.524 | 0.632 | 0.719 | 0.704 | 0.468 | 0.705 | 0.576 |
| HOP-62 | 0.305 | 0.336 | 0.244 | 0.235 | 0.223 | 0.766 | 0.542 | 0.644 | 0.771 | 0.469 | 0.394 | 0.415 | 0.402 | 0.348 |  | 0.389 | 0.381 | 0.315 | 0.416 | 0.345 |
| LCLC-97TM1 | 0.191 | 0.186 | 0.164 | 0.189 | 0.125 | 0.84 | 0.65 | 0.879 | 1.01 | 0.327 | 0.316 | 0.229 | 0.305 | 0.348 | 0.367 | 0.292 | 0.331 | 0.417 | 0.295 | 0.178 |
| NCI-H3122 | 0.202 | 0.19 | 0.176 | 0.159 | 0.128 | 1.11 | 1.01 | 0.978 | 1.13 | 0.908 | 0.35 | 0.493 | 0.439 | 0.441 | 0.7 | 0.635 | 0.711 | 0.627 | 0.644 |  |
| PC-14 | 0.126 | 0.124 | 0.0908 | 0.0863 | 0.0432 | 0.95 | 0.68 | 0.613 | 0.639 | 0.255 | 0.677 | 0.58 | 0.471 | 0.483 |  | 0.302 | 0.233 | 0.353 | 0.298 |  |
| NCI-H2170 | 0.277 | 0.23 | 0.281 | 0.234 | 0.177 | 0.923 | 0.687 | 0.872 | 0.805 | 0.635 | 0.689 | 0.768 | 0.77 | 0.6 | 0.584 | 0.686 | 0.592 | 0.579 | 0.5 | 0.804 |
| NCI-H1650 | 0.344 | 0.355 | 0.289 | 0.386 | 0.307 | 0.498 | 0.737 | 0.524 | 0.578 | 0.437 | 0.503 | 0.386 | 0.455 | 0.357 | 0.689 | 0.784 | 0.879 | 0.836 | 0.751 |  |
| HCC-366 | 0.159 | 0.127 | 0.144 | 0.0815 | 0.06 | 0.426 | 0.269 | 0.28 | 0.121 | 0.0472 | 0.113 | 0.192 | 0.0897 | 0.101 | 0.424 | 0.417 | 0.39 | 0.287 | 0.197 | 0.117 |
| HARA | 0.253 | 0.232 | 0.201 | 0.169 | 0.131 | 0.6 | 0.472 | 0.624 | 0.633 | 0.708 | 0.111 | 0.112 | 0.107 | 0.119 | 1.17 | 0.841 | 1.04 | 0.793 | 0.584 | 0.113 |
| SW 900 | 0.494 | 0.504 | 0.461 | 0.46 | 0.221 | 0.503 | 0.449 | 0.453 | 0.305 | 0.341 | 0.649 | 0.499 | 0.534 | 0.625 | 0.805 | 0.944 | 0.955 | 1.05 | 0.91 | 0.581 |
| COR-L 105 | 1.07 | 0.965 | 0.74 | 1.04 | 0.712 | 0.865 | 0.883 | 0.638 | 0.718 | 0.56 | 0.314 | 0.423 | 0.475 | 0.35 |  | 0.614 | 0.652 | 0.614 | 0.606 | 0.383 |
| NCI-H1395 | 0.792 | 0.789 | 0.827 | 0.745 | 0.486 | 0.69 | 0.647 | 0.705 | 0.638 | 0.43 | 0.718 | 0.86 | 0.753 | 0.78 | 0.44 | 0.419 | 0.456 | 0.443 | 0.476 | 0.768 |
| EMC-BAC-2 | 0.45 | 0.391 | 0.427 | 0.371 | 0.308 | 0.495 | 0.423 | 0.431 | 0.416 | 0.338 | 0.288 | 0.279 | 0.262 | 0.236 | 0.465 | 0.482 | 0.478 | 0.478 | 0.406 | 0.292 |
| NCI-H1666 | 0.941 | 0.841 | 0.779 | 0.558 | 0.571 | 1.14 | 1.06 | 1.18 | 1.01 | 0.942 | 0.579 | 0.587 | 0.585 | 0.521 | 0.74 | 0.759 | 0.797 | 0.786 | 0.698 | 0.596 |
| H3255 | 0.6 | 0.583 | 0.61 | 0.604 | 0.517 | 0.953 | 0.742 | 0.915 | 0.772 | 0.805 | 0.568 | 0.841 | 0.56 | 0.682 | 0.532 | 0.547 | 0.539 | 0.443 | 0.457 | 0.612 |
| NCI-H1793 | 1.2 | 0.769 |  | 1.13 | 0.565 | 0.996 | 0.616 |  | 0.837 | 0.615 | 0.368 | 0.48 | 0.492 | 0.309 | 0.769 | 0.8 | 1.07 | 0.89 | 0.706 | 0.343 |
